Measurements from ChEMBL document CHEMBL6078690, “Targeting HMGB1 and Its Interaction with Receptors: Challenges and Future Directions” (J Med Chem, 2024).

Tested on: RAW264.7
Experiment: Anti-inflammatory activity against mouse RAW264.7 cells assessed as inhibition of LPS-induced NO production

IC50 [µM]	Structure (SMILES)
15.9	COc1ccc(/C=C/C(=O)C[C@H]2CC[C@]3(C)[C@H]4C(=O)C=C5[C@@H]6C[C@@](C)(C(=O)Oc7cn(C8O[C@@H](OC(C)=O)[C@@H](OC(C)=O)[C@@H](OC(C)=O)[C@@H]8OC(C)=O)nn7)CC[C@]6(C)CC[C@@]5(C)[C@]4(C)CC[C@H]3C2(C)C)cc1 (stereo not given in full)
13.4	COC(=O)C(Cc1c[nH]c2ccccc12)NC(=O)[C@@]1(C)CC[C@]2(C)CC[C@]3(C)C(=CC(=O)[C@@H]4[C@@]5(C)CCC(OC(=O)CCCCC6CCSS6)C(C)(C)[C@@H]5CC[C@]43C)[C@@H]2C1 (stereo not given in full)
5	CC1(C)[C@@H](OC(=O)CCC(=O)O)CC[C@]2(C)[C@H]3C(=O)C=C4[C@@H]5C[C@@](C)(C(=O)O)CC[C@]5(C)CC[C@@]4(C)[C@]3(C)CC[C@@H]12 [CARBENOXOLONE]

Structure (SMILES)	IC50 [µM]
O=C(O[C@@H]1Cc2c(O)cc(O)cc2O[C@@H]1c1cc(O)c(O)c(O)c1)c1cc(O)c(O)c(O)c1 [EPIGALOCATECHIN GALLATE]	< 1

Target: T1, High mobility group protein B1 (Homo sapiens, UniProt P09429)
T1 sequence (P09429 whole entry): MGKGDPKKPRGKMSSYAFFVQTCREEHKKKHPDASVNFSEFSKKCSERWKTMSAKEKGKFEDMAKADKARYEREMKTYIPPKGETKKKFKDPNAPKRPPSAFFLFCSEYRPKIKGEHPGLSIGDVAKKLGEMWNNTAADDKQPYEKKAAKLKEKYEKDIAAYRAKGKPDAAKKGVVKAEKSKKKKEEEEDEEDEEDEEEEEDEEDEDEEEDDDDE
Description: Binding affinity to HMGB1 (unknown origin) assessed as dissociation constant by SPR analysis

Kd [µM]	Structure (SMILES)
4.5	CO[C@H]1O[C@H](COS(=O)(=O)O)[C@@H](O[C@@H]2O[C@@H](C(=O)O)[C@@H](COC[C@H]3O[C@H](COS(=O)(=O)O)[C@@H](O[C@@H]4O[C@H](C(=O)O)[C@@H](COC[C@H]5O[C@H](COS(=O)(=O)O)[C@@H](O)[C@H](O)[C@H]5NS(=O)(=O)O)[C@H](O)[C@H]4O)[C@H](OS(=O)(=O)O)[C@H]3NS(=O)(=O)O)[C@H](O)[C@H]2OS(=O)(=O)O)[C@H](O)[C@H]1NS(=O)(=O)O
1	CC(=O)Oc1ccccc1C(=O)O [ASPIRIN]
0.12	COc1ccc(-c2coc3cc(O)ccc3c2=O)cc1O [CALYCOSIN]
16	O=C(O)c1cc(-c2ccc(F)cc2F)ccc1O [DIFLUNISAL]
0.1	O=c1c(O[C@@H]2O[C@H](CO)[C@@H](O)[C@H](O)[C@H]2O)c(-c2ccc(O)c(O)c2)oc2cc(O)cc(O)c12 [ISOQUERCETIN]
0.26	C[C@@H]1O[C@@H](OC[C@H]2O[C@@H](Oc3c(-c4ccc(O)c(O)c4)oc4cc(O)cc(O)c4c3=O)[C@H](O)[C@@H](O)[C@@H]2O)[C@H](O)[C@H](O)[C@H]1O [RUTIN]
